Assays:
cerebral cortex = test: Example 5: cortical lesion study, neuroprotection and inflammation; format: in vivo, long evans hooded rats; conditions: injected with DA neural cells
Text: Animals, Surgery, and histology: lesion studies will be conducted on 15 long evans hooded rats weighing 225-275 g. Twelve of these rats will be deeply anesthetized 10 with ketamine/xylazine and placed in a sterotaxic holder. A 4×2 mm (rostrocaudal×mediolateral) skull opening will be made on the right side starting just behind the coronal suture and centered at a mediolateral position of +2.5 mm relative to bregma. A dissecting knife will be penetrated through the dura and cortex in the center of this skull opening to a depth of 1 mm. The skull defect will be filled with bone wax, the skin sutured closed, and the animal placed on a heating pad. Twenty minutes later, 0.4 cc of solution containing 100 μg of 20 peptide (^~0.4 mg/kg, 6 rats) or DMEM vehicle (6 rats) will be injected under the skin of the shoulder near the midline. The rats will be perfused 4 days later and their brains processed for histology and immunohistochemistry as in previous studies. Three rats will be sacrificed without surgery or treatment. […] The density of ED-1+ ameboid microglia in the perilesion parencyma wound will be calculated after experimentally blinded counting of 4 fields (dorsal and ventral margins of the wound) in 2 sections through the lesion.

microglia = conditions: cited from earlier work
DA neural cells = test: Example 2: stress test, medium change followed by serum deprivation; format: cell-based; conditions: concentrations of 0.1 and 0.01 μM
Text: DA neural cell survival will be measured by either counting surviving attached DA neural cells or by colorimetric determination after applying an electrocoupling reagent that responds to chemical reactions in normal cellular respiration.

PGC-1a = test: upregulation of PGC-1a, mode of action relevant to dopaminergic cells; format: cell-based; conditions: for ability to upregulate PGC-1a: target relevant to dopaminergic cells and Parkinson's disease

## FC(F)(F)c1ccc(CNc2ccc(Cc3c[nH]c4ncc(Cl)cc34)cn2)cn1 [Pexidartinib]
Cerebral cortex
  accumulation of inflammatory cells in the parenchyma: inhibited
  disruption of the cerebral cortex: inhibited
microglia; healthy brain
  depletion of the microglia population: fast depletion of the microglia population
microglia; in vivo
  survival of microglia: inhibit the survival of microglia
DA neural cells
  rescue of DA neural cells: rescue DA neural cells

## CC(C)(Oc1ccc(CCNC(=O)c2ccc(Cl)cc2)cc1)C(=O)O [benzafibrate]
PGC-1a
  ability to upregulate PGC-1a: unable to upregulate PGC-1a

## CCOC(=O)C(C)(C)Oc1ccc(Cl)cc1 [clorofibrate]
PGC-1a
  ability to upregulate PGC-1a: unable to upregulate PGC-1a

## CC(C)OC(=O)C(C)(C)Oc1ccc(C(=O)c2ccc(Cl)cc2)cc1 [fenofibrate]
PGC-1a; mode of action relevant to dopaminergic cells and Parkinson's disease
  activity (active or not): active
